Measurements: US8269000B2, “Substituted pyrimidine and triazine compounds” (Gruenenthal GmbH, priority 2008, dated 2012)

The compounds below were run against T1, rat B1R (Rattus norvegicus, UniProt P97583) (assay: FLIPR Ca2+ functional study on bradykinin receptor 1 (rB1R CHO K1 cells)). Details: % inhibition rat B1R at 10 μM.
T1 construct: expressed in transfected cells; host or cells: CHO K1 cells
T1 sequence (P97583 1-337): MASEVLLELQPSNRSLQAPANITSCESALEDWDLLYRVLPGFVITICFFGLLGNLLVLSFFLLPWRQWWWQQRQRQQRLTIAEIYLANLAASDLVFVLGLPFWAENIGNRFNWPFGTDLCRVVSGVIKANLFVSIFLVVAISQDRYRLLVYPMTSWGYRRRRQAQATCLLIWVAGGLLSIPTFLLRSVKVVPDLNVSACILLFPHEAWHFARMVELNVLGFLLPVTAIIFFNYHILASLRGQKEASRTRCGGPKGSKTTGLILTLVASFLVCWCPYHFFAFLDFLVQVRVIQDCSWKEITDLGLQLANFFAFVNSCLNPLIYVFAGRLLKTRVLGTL
Assay type: cell-based
Protocol: The agonistic or antagonistic activity of substances can be quantified on the bradykinin receptor 1 (B1R) of the species human and rat using ectopically expressing cell lines (CHO K1 cells) and with the aid of a Ca^2+-sensitive dye (Fluo-4) using a fluorescent imaging plate reader (FLIPR). The indication in % activation is based on the Ca^2+ signal after addition of Lys-Des-Arg^9-bradykinin (0.5 nM) or Des-Arg^9-bradykinin (100 nM). Antagonists lead to suppression of the Ca^2+ influx after the addition of the agonist. % Inhibition compared with the maximum achievable inhibition is indicated.
The agonistic or antagonistic activity of substances can be determined on the bradykinin receptor 1 (B1R) of the species human and rat using the following assay. According to this assay, the Ca^2+ influx through the channel is quantified with the aid of a Ca^2+-sensitive dye (Fluo-4 type, Molecular Probes Europe BV, Leiden, Netherlands) using a Fluorescent Imaging Plate Reader (FLIPR, Molecular Devices, Sunnyvale, USA).
Chinese hamster ovary cells (CHO K1 cells) which have been stably transfected with the human B1R gene (hB1R cells) or with the B1R gene of the rat (rB1R cells) are used. For functional studies, the cells are plated out on black 96-well plates having a clear base (BD Biosciences, Heidelberg, Germany or Greiner, Frickenhausen, Germany) in a density of 20,000-35,000 cells/well. The cells are left overnight at 37° C. and with 5% CO2 in culture medium (hB1R cells: Nutrient Mixture Ham's F12, Gibco Invitrogen GmbH, Karlsruhe, Germany or DMEM, Sigma-Aldrich, Taufkirchen, Germany; rB1R cells: D-MEM/F12, Gibco Invitrogen GmbH, Karlsruhe, Germany), with 10 vol.% FBS (fetal bovine serum, Gibco Invitrogen GmbH, Karlsruhe, Germany or PAN Biotech GmbH, Aidenbach, Germany). On the following day, the cells are loaded for 60 minutes at 37° C. with 2.13 μM Fluo-4 (Molecular Probes Europe BV, Leiden, Netherlands) in HBSS buffer (Hank's buffered saline solution, Gibco Invitrogen GmbH, Karlsruhe, Germany) […] (Sigma-Aldrich, Taufkirchen, Germany) and 10 mM HEPES (Sigma-Aldrich, Taufkirchen, Germany). The plates are then washed twice with HBSS buffer, and HBSS buffer additionally containing 0.1% BSA (bovine serum albumin; Sigma-Aldrich, Taufkirchen, Germany), 5.6 mM glucose and 0.05% gelatin (Merck KGaA, Darmstadt, Germany) is added to the plates. After incubation for a further 20 minutes at room temperature, the plates are inserted into the FLIPR for Ca^2+ measurement. Alternatively, washing is carried out with buffer A (15 mM HEPES, 80 mM NaCl, 5 mM KCl, 1.2 mM CaCl2, 0.7 mM MgSO4, 2 g/l glucose, 2.5 mM probenecid) followed by loading with buffer A with added 2.5 μM Fluo-4 and 0.025% Pluronic F127 (Sigma-Aldrich, Taufkirchen, Germany). The cells are then washed twice with buffer A and incubated for 30 minutes at room temperature with buffer A additionally containing 0.05% BSA and 0.05% gelatin and are then inserted into the FLIPR for Ca^2+ measurement. The Ca^2+-dependent fluorescence is measured before and after the addition of substances (λex=488 nm, λem=540 nm). Quantification is carried out by measuring the highest fluorescence intensity (FC, fluorescence counts) over time.
The FLIPR protocol consists of two substance additions. Test substances (10 μM) are first pipetted onto the cells and the Ca^2+ influx is compared with the control (hB1R: Lys-Des-Arg^9-bradykinin>=50 nM; rB1R: Des-Arg^9-bradykinin 10 μM). This gives the activation in %, based on the Ca^2+ signal after addition of Lys-Des-Arg^9-bradykinin (>=50 nM) or Des-Arg^9-bradykinin (10 μM). After 10-20 minutes' incubation, Lys-Des-Arg^9-bradykinin (hB1R) or Des-Arg^9-bradykinin (rB1R) is applied in the concentration of the EC80, and the influx of Ca^2+ is likewise determined. Antagonists lead to suppression of the Ca^2+ influx. The % inhibition compared with the maximum achievable inhibition is calculated. […]
With COc1cc(C)c(S(=O)(=O)N2CCC[C@H]2COc2nccc(N3CCC(CCN4CCCCC4)CC3)n2)c(C)c1 [G_CC-037] the “% inh. (rat B1R) 10 μM” value was 102%. With COc1cc(C)c(S(=O)(=O)N(C)CCOc2nccc(N3CCC(CCN4CCCCC4)CC3)n2)c(C)c1 [G_CC-031] the “% inh. (rat B1R) 10 μM” value was 104%.

Same assay, conditions: CHO-K1, % inhibition rat B1R at 10 μM, read-out: % inh. (rat B1R) 10 μM
CCCCC1(N(C)C)CCN(CCN(C)c2nccc(OC3CN(S(=O)(=O)c4c(C)cc(OC)cc4C)C3)n2)CC1 [H_CC-071, 2-(4-butyl-4-dimethylamino-piperidin-1-yl)-ethyl-[4-[1-[(4-methoxy-2,6-dimethyl-phenyl)sulfonyl]-azetidin-3-yl]oxy-pyrimidin-2-yl]-methyl-amine] showed an inhibition at 10 µM of 55%. Compound COc1cc(C)c(S(=O)(=O)N2CCCC(Oc3nccc(N4CCC(c5ccccc5)(N5CCCC5)CC4)n3)C2)c(C)c1 (stereo not shown) [G_CC-114, 2-[1-[(4-methoxy-2,6-dimethyl-phenyl)sulfonyl]-piperidin-3-yl]oxy-4-(4-phenyl-4-pyrrolidin-1-yl-piperidin-1-yl)-pyrimidine] has an inhibition at 10 µM of 54%. For COc1cc(C)c(S(=O)(=O)N2c3ccccc3C[C@H]2COc2nccc(N3CCC(Oc4cnccn4)CC3)n2)c(C)c1 [G_CC-092, (2S)-1-[(4-methoxy-2,6-dimethyl-phenyl)sulfonyl]-2-[[4-(4-pyrazin-2-yloxy-piperidin-1-yl)-pyrimidin-2-yl]oxy-methyl]-2,3-dihydro-1H-indole], the inhibition at 10 µM was 85%. With COc1cc(C)c(S(=O)(=O)N2CC(Oc3ccnc(N(C)CCCN4CCC(c5ccccc5)(N(C)C)CC4)n3)C2)c(C)c1 [H_CC-074, 3-(4-dimethylamino-4-phenyl-piperidin-1-yl)-propyl-[4-[1-[(4-methoxy-2,6-dimethyl-phenyl)sulfonyl]-azetidin-3-yl]oxy-pyrimidin-2-yl]-methyl-amine] the inhibition at 10 µM was 59%. In the case of COc1cc(C)c(S(=O)(=O)N2CCC[C@H]2COc2ccnc(N(C)CCN3CCC(c4ccccc4)(N4CCCC4)CC3)n2)c(C)c1 [H_CC-055, [4-[[(2S)-1-[(4-methoxy-2,6-dimethyl-phenyl)sulfonyl]-pyrrolidin-2-yl]-methoxy]-pyrimidin-2-yl]-methyl-[2-(4-phenyl-4-pyrrolidin-1-yl-piperidin-1-yl)-ethyl]-amine], the inhibition at 10 µM is reported as 92%. In the case of COc1cc(C)c(S(=O)(=O)N(C)CCOc2nccc(N(C)CCCN3CCC(c4ccccc4)(N(C)C)CC3)n2)c(C)c1 [G_CC-100, N-[2-[4-[3-(4-dimethylamino-4-phenyl-piperidin-1-yl)-propyl-methyl-amino]-pyrimidin-2-yl]oxy-ethyl]-4-methoxy-N,2,6-trimethyl-benzenesulfonic acid amide], the inhibition at 10 µM is reported as 89%. Compound COc1cc(C)c(S(=O)(=O)N2CCC[C@H]2COc2ccnc(N3CCN(c4ncccn4)CC3)n2)c(C)c1 [H_CC-011, 4-[[(2S)-1-(4-methoxy-2,6-dimethylphenyl)sulfonyl-2-pyrrolidinyl]methoxy]-2-[4-(2-pyrimidinyl)-1-piperazinyl]pyrimidine] has an inhibition at 10 µM of 56%. In the case of COc1cc(C)c(S(=O)(=O)N(C)CCOc2nccc(N3CCC4(CC3)C(=O)N(C)CC4c3ccc(F)cc3)n2)c(C)c1 (stereo not shown) [G_CC-044, N-[2-[[4-[1-(4-fluorophenyl)-3-methyl-4-oxo-3,8-diazaspiro[4.5]decan-8-yl]-2-pyrimidinyl]oxy]ethyl]-4-methoxy-N,2,6-trimethylbenzenesulfonamide], the inhibition at 10 µM is reported as 68%. With COc1cc(C)c(S(=O)(=O)N(C)C(COc2nccc(N3CCC4(CCN(Cc5ccccc5)C4=O)CC3)n2)c2ccccc2)c(C)c1 (stereo not shown) [G_CC-061, N-[2-[[4-(3-benzyl-4-oxo-3,8-diazaspiro[4.5]decan-8-yl)-2-pyrimidinyl]oxy]-1-phenylethyl]-4-methoxy-N,2,6-trimethylbenzenesulfonamide] the inhibition at 10 µM was 81%. COc1cc(C)c(S(=O)(=O)N2CC(Oc3nccc(N4CCC(O)(c5cccnc5)CC4)n3)C2)c(C)c1 [G_CC-128, 1-[2-[1-[(4-methoxy-2,6-dimethyl-phenyl)sulfonyl]-azetidin-3-yl]oxy-pyrimidin-4-yl]-4-pyridin-3-yl-piperidin-4-ol] was tested, and the inhibition at 10 µM was 57%. For COc1cc(C)c(S(=O)(=O)N2CCCCC2COc2nccc(N(C)CCN3CCC(O)(c4cccnc4)CC3)n2)c(C)c1 (stereo not shown) [G_CC-106, 1-[2-[[2-[[1-[(4-methoxy-2,6-dimethyl-phenyl)sulfonyl]-piperidin-2-yl]-methoxy]-pyrimidin-4-yl]-methyl-amino]ethyl]-4-pyridin-3-yl-piperidin-4-ol], the inhibition at 10 µM was 95%. COc1cc(C)c(S(=O)(=O)N(C)C(COc2nccc(N3CCC(Oc4ccccn4)CC3)n2)c2ccccc2)c(C)c1 (stereo not shown) [G_CC-136, 4-methoxy-N,2,6-trimethyl-N-[1-phenyl-2-[4-(4-pyridin-2-yloxy-piperidin-1-yl)-pyrimidin-2-yl]oxy-ethyl]benzenesulfonic acid amide] showed an inhibition at 10 µM of 81%. COc1cc(C)c(S(=O)(=O)N(C)CCOc2ccnc(N3CCC(OCCN4CCCC4)(c4cccnc4)CC3)n2)c(C)c1 [H_CC-033, 4-methoxy-N,2,6-trimethyl-N-[2-[[2-[4-(3-pyridyl)-4-(2-1-pyrrolidinylethoxy)-1-piperidinyl]-4-pyrimidinyl]oxy]ethyl]benzenesulfonamide] showed an inhibition at 10 µM of 82%. Work on COc1cc(C)c(S(=O)(=O)N2CCCCC2COc2ccnc(N3[C@@H]4CC[C@H]3CC(Oc3ccncc3)C4)n2)c(C)c1 (stereo partly drawn) [H_CC-050, (1S,5R)-8-[4-[[1-[(4-methoxy-2,6-dimethyl-phenyl)sulfonyl]-piperidin-2-yl]-methoxy]-pyrimidin-2-yl]-3-pyridin-4-yloxy-8-azabicyclo[3.2.1]octane] yielded an inhibition at 10 µM of 74%. COc1cc(C)c(S(=O)(=O)N(C)CCOc2nccc(N3CCC4(CCN(Cc5ccccc5)C4)C3)n2)c(C)c1 (stereo not shown) [G_CC-028, N-[2-[[4-(3-benzyl-3,7-diazaspiro[4.4]nonan-7-yl)-2-pyrimidinyl]oxy]ethyl]-4-methoxy-N,2,6-trimethylbenzenesulfonamide] gave an inhibition at 10 µM of 104%. With COc1cc(C)c(S(=O)(=O)N2CCC[C@H]2COc2ccnc(N3CCN(C)CC3)n2)c(C)c1 [H_CC-008, 4-[[(2S)-1-(4-methoxy-2,6-dimethylphenyl)sulfonyl-2-pyrrolidinyl]methoxy]-2-(4-methyl-1-piperazinyl)pyrimidine] the inhibition at 10 µM was 95%. In the case of COc1cc(C)c(S(=O)(=O)N2c3ccccc3C[C@H]2COc2ccnc(N3CCN(C4CCN(C)CC4)CC3)n2)c(C)c1 [H_CC-027, (2S)-1-(4-methoxy-2,6-dimethylphenyl)sulfonyl-2-[[2-[4-(1-methyl-4-piperidinyl)-1-piperazinyl]-4-pyrimidinyl]oxymethyl]indoline], the inhibition at 10 µM is reported as 91%.
